Assay results taken from patent US20020165130A1, “Method of sensitizing microbial cells to antimicrobial compounds” (priority 1998, published 2002).
“Also recorded” adds a separate entry of the source.

Assays:
[1] = test system: Staphylococcus aureus ATCC 6538; assay: Antibiotic disc assay (zones of inhibition), S. aureus; format: cell-based; conditions: for ability to sensitize S. aureus to ciprofloxacin: 0.5 mM terpenoid; for ability to sensitize S. aureus to ciprofloxacin / zone size, ciprofloxacin 5 μg disc: ciprofloxacin 5 μg disc; for sensitization to six different antibiotics: disc diffusion, 0.5-2 mM sesquiterpenoid; for zone size, ciprofloxacin 5 μg disc: terpenoid at 0.5 mM in agar overlay
Description: (§1) Erwinia sp. #351 was from Presque Isle Cultures, Presque Isle, Pa. Lactobacillus fermentum ATCC 14931, zygosaccharomyces bailii ATCC 60483 and E. coli ATCC 25922 (National Committee on Clinical Laboratory Standards antibiotic test strain) were from the American Type Culture Collection, Manassas, Va. Staphylococcus aureus ATCC 6538 and Enterococcus faecalis Bact. 4025 were obtained from the UW-Madison Department of Bacteriology culture collection. All bacteria except for L. fermentum were grown statically in screwcap tubes containing 10 ml Trypticase Soy Broth (BBL, Cockeysville, Md.) for 20-22 hours at 30° C. L. fermentum was grown statically in screwcap tubes containing 10 ml MRS broth (Difco) for 20-22 hours at 30° C. Cultures of Z. bailii were grown in 125 ml culture flasks containing 50 ml YM broth (Difco) on a rotary shaker set at 200 rpm for 20-22 hours at 25° C.
(§2) The activity of terpenoid compounds toward facilitating susceptibility to antibiotics was assessed using an antibiotic disc assay. For this assay, cells from an overnight growth were suspended to a known concentration in 0.5 ml 67 mM phosphate buffer, pH 7.0 and mixed with 4.5 ml 0.7% Iso-Sensitest agar (Oxoid, Basingstoke, Hampshire, England) overlay tempered to 50° C. Terpenoid compounds dissolved in absolute ethanol were added to the cell/agar overlay mixture yielding final concentrations of 0.5, 1.0 or 2.0 mM, depending on the experiment. The final concentration of ethanol in cell overlays was 0.5% and the final concentration of target cells was ca. 10^6 cfu/ml. After thorough vortexing, terpenoid-containing cell overlays were poured over hardened Iso-Sensitest agar (2% agar) plates and allowed to set. […] After incubation, zones of inhibition were measured with a ruler from the bottom of the plates.

[2] = test system: Enterococcus faecalis Bact. 4025; format: cell-based; conditions: E. faecalis; for degree of sensitization to antibiotics: disc diffusion; for degree of sensitization to antibiotics / zones smaller than control plates by: 1 mM sesquiterpenoid; for zones smaller than control plates by: clindamycin 2 μg disc
Description: as §1, §2

[3] = test system: Lactobacillus fermentum ATCC 14931; assay: Flow cytometry, uptake of ethidium bromide by L. fermentum; format: cell-based; conditions: 15 μM ethidium bromide; for uptake of ethidium bromide (ethidium-conferred fluorescence): 0.5 mM sesquiterpenoid, 40 minutes
Description: (§3) Erwinia sp. #351 was from Presque Isle Cultures, Presque Isle, Pa. Lactobacillus fermentum ATCC 14931, zygosaccharomyces bailii ATCC 60483 and E. coli ATCC 25922 (National Committee on Clinical Laboratory Standards antibiotic test strain) were from the American Type Culture Collection, Manassas, Va. Staphylococcus aureus ATCC 6538 and Enterococcus faecalis Bact. 4025 were obtained from the UW-Madison Department of Bacteriology culture collection. All bacteria except for L. fermentum were grown statically in screwcap tubes containing 10 ml Trypticase Soy Broth (BBL, Cockeysville, Md.) for 20-22 hours at 30° C. L. fermentum was grown statically in screwcap tubes containing 10 ml MRS broth (Difco) for 20-22 hours at 30° C. Cultures of Z. bailii were grown in 125 ml culture flasks containing 50 ml YM broth (Difco) on a rotary shaker set at 200 rpm for 20-22 hours at 25° C. For experiments involving flow cytometry, overnight cultures of Erwinia sp., L. fermentum and Z. bailli were set to a concentration of ca. 10^7 cfu/ml in 67 mM phosphate buffer, pH 7.0 (filtered, 0.2 μm). For the examination of sesquiterpenoids, cell suspensions containing either 0.5% ethanol and 15 μM ethidium bromide or 0.5 mM apritone, bisabolol, nerolidol or farnesol dissolved in ethanol (0.5% ethanol, final concentration) and 15 μM ethidium bromide were incubated for 40 minutes at room temperature. After incubation, cell suspensions were diluted 1:10 in 67 mM phosphate buffer, pH 7.0 (filtered, 0.2 μm) and examined using a FACScan flow cytometer (Becton Dickinson and Company, Cockeysville, Md.). Data were collected in logarithmic mode on forward scatter, side scatter and fluorescence characteristics of the cells.

[4] = test system: zygosaccharomyces bailii ATCC 60483; assay: Flow cytometry, uptake of ethidium bromide by Z. bailii; format: cell-based; conditions: 0.5 mM sesquiterpenoid, 15 μM ethidium bromide, 40 minutes
Description: as §3

E. coli ATCC 25922 = assay: Plating assay, nerolidol enhancing polymyxin B activity against E. coli; format: cell-based, Escherichia coli; conditions: 1 mM nerolidol plus 10 ppm polymyxin B, up to 30 minutes at 37° C.
Description: as §1, with “25° C. […]” for “25° C.”
Cell suspensions (1.7×10^7 cfu/ml in 67 mM phosphate buffer, pH 7.0) were treated as shown and incubated for up to 30 minutes at 37° C. Cell viability was determined at appropriate intervals by pour plating with Trypticase Soy agar tempered to 50° C.

SMILES	ability to sensitize S. aureus to ciprofloxacin [1]	sensitization to six different antibiotics [1]	zone size, ciprofloxacin 5 μg disc [1] [mm]	degree of sensitization to antibiotics [2]	uptake of ethidium bromide (ethidium-conferred fluorescence) [3]	uptake of ethidium bromide (fluorescence, chromosomal staining) [4]	inhibitory by itself in disc assay overlay ([1]; all concentrations used (0.5, 1, 2 mM))	inhibitory by itself in disc assay overlay ([2]; 1 mM)	uptake of ethidium bromide (ethidium-conferred fluorescence) ([3]; listed as Farnesol)	zones smaller than control plates by [2] [mm]	enhancement of inhibition zone size ([2]; nerolidol 1 mM combined with gentamicin 10 μg disc)	time to substantial uptake of ethidium bromide ([3]; 0.5 mM nerolidol) [min]	susceptibility of E. coli to polymyxin B (cell viability, cfu/ml) (E. coli ATCC 25922)
CC(C)=CCC/C(C)=C/CC1CCCC1=O (stereo not drawn) [apritone]	least effective	readily sensitized	24	only a modest degree of sensitization	facilitated the uptake of ethidium bromide	greatest degree of chromosomal staining; also recorded: became more fluorescent	–	–	–	–	–	–	–
CC(C)=CCCC(C)=CCCC(C)=CCO [farnesol]	–	–	–	–	facilitated the uptake of ethidium bromide	became more fluorescent	inhibitory	inhibitory	highest ethidium-conferred fluorescence peak	–	–	–	–
C=CC(C)(O)CCC=C(C)CCC=C(C)C (stereo not drawn) [nerolidol]	most effective	readily sensitized	27.5	only a modest degree of sensitization	facilitated the uptake of ethidium bromide	became more fluorescent	–	–	–	1	almost two-fold enhancement	≤ 5	dramatic increase in the susceptibility; also recorded: synergistic effect
CC(C)=CCC[C@](C)(O)C1CC=C(C)CC1 (stereo partly drawn) [bisabolol]	–	readily sensitized	25	only a modest degree of sensitization	facilitated the uptake of ethidium bromide	became more fluorescent	–	–	–	1	–	–	–
